Source: ChEMBL document CHEMBL3885881, “DrugMatrix”

Species: Rattus norvegicus
Experiment: DrugMatrix - Regimen: Daily Repeat
Format: toxicity, organism-based, Sprague-Dawley
Parameters: regimen Daily Repeat, gender Male, age 6-8 weeks
Settings: in vivo, po, route oral GAVAGE, vehicle 100 % WATER; for ABSOLUTE BASOPHIL / ABSOLUTE EOSINOPHIL / ABSOLUTE LYMPHOCYTE / ABSOLUTE MONOCYTE / ABSOLUTE SEGMENTED NEUTROPHIL / BASOPHIL / EOSINOPHIL / ERYTHROCYTE COUNT / HEMATOCRIT / HEMOGLOBIN / LEUKOCYTE COUNT / LYMPHOCYTE / MEAN CORPUSCULAR HEMOGLOBIN / MEAN CORPUSCULAR HEMOGLOBIN CONCENTRATION / MEAN CORPUSCULAR VOLUME / MONOCYTE / NEUTROPHIL / NUCLEATED RED BLOOD CELLS / PLATELET COUNT: tissue Blood; for ALANINE AMINOTRANSFERASE / ALBUMIN / ALKALINE PHOSPHATASE / ASPARTATE AMINOTRANSFERASE / BLOOD UREA NITROGEN / CARBON DIOXIDE / CHLORIDE / CHOLESTEROL / CREATINE PHOSPHOKINASE / CREATININE / GLUCOSE / LACTATE DEHYDROGENASE / LIPASE / PHOSPHORUS / POTASSIUM / SODIUM / TOTAL BILIRUBIN / TOTAL PROTEIN / URIC ACID: tissue Plasma
[1] = 20 mg/kg, 120 h, dose level Low, time 5 day
[2] = 70 mg/kg, 72 h, dose level High, time 3 day
[3] = 70 mg/kg, 120 h, dose level High, time 5 day

## C=CCC1(C(C)CCC)C(=O)NC(=O)NC1=O (centres undefined) [SECOBARBITAL]
[1]
  ABSOLUTE BASOPHIL: 0 CELLS/uL
  ABSOLUTE EOSINOPHIL: 32 CELLS/uL
  ABSOLUTE LYMPHOCYTE: 7003.67 CELLS/uL
  ABSOLUTE MONOCYTE: 32 CELLS/uL
  ABSOLUTE SEGMENTED NEUTROPHIL: 565.67 CELLS/uL
  BASOPHIL: 0%
  EOSINOPHIL: 0.33%
  ERYTHROCYTE COUNT: 5.26 x10E6/uL
  HEMATOCRIT: 32.97%
  HEMOGLOBIN: 12.83 G/DL
  LEUKOCYTE COUNT: 7.63 x10E3/uL
  LYMPHOCYTE: 92%
  MEAN CORPUSCULAR HEMOGLOBIN: 24.43 pg
  MEAN CORPUSCULAR HEMOGLOBIN CONCENTRATION: 38.97 G/DL
  MEAN CORPUSCULAR VOLUME: 62.7 fL
  MONOCYTE: 0.33%
  NEUTROPHIL: 7.33%
  NUCLEATED RED BLOOD CELLS: 0.33 /100WBC
  PLATELET COUNT: 1182 x10E3/uL
  ALANINE AMINOTRANSFERASE: 49.33 u/L
  ALBUMIN: 3.97 G/DL
  ALKALINE PHOSPHATASE: 382 u/L
  ASPARTATE AMINOTRANSFERASE: 77.67 u/L
  BLOOD UREA NITROGEN: 13.67 mg/dL
  CARBON DIOXIDE: 34 mmol/L
  CHLORIDE: 99 MEQ/L
  CHOLESTEROL: 77.33 mg/dL
  CREATINE PHOSPHOKINASE: 254 u/L
  CREATININE: 0.16 mg/dL
  GLUCOSE: 144 mg/dL
  LACTATE DEHYDROGENASE: 142.33 u/L
  LIPASE: 9 u/L
  PHOSPHORUS: 11.07 mg/dL
  POTASSIUM: 5.94 MEQ/L
  SODIUM: 144.5 MEQ/L
  TOTAL BILIRUBIN: 0.17 mg/dL
  TOTAL PROTEIN: 5.87 G/DL
  URIC ACID: 0.4 mg/dL
[2]
  ABSOLUTE BASOPHIL: 0 CELLS/uL
  ABSOLUTE EOSINOPHIL: 0 CELLS/uL
  ABSOLUTE LYMPHOCYTE: 6560.67 CELLS/uL
  ABSOLUTE MONOCYTE: 45.33 CELLS/uL
  ABSOLUTE SEGMENTED NEUTROPHIL: 794 CELLS/uL
  BASOPHIL: 0%
  EOSINOPHIL: 0%
  ERYTHROCYTE COUNT: 5.13 x10E6/uL
  HEMATOCRIT: 31.93%
  HEMOGLOBIN: 12.3 G/DL
  LEUKOCYTE COUNT: 7.4 x10E3/uL
  LYMPHOCYTE: 88.67%
  MEAN CORPUSCULAR HEMOGLOBIN: 24 pg
  MEAN CORPUSCULAR HEMOGLOBIN CONCENTRATION: 38.53 G/DL
  MEAN CORPUSCULAR VOLUME: 62.27 fL
  MONOCYTE: 0.67%
  NEUTROPHIL: 10.67%
  NUCLEATED RED BLOOD CELLS: 0.33 /100WBC
  PLATELET COUNT: 827 x10E3/uL
  ALANINE AMINOTRANSFERASE: 56.67 u/L
  ALBUMIN: 4.03 G/DL
  ALKALINE PHOSPHATASE: 339 u/L
  ASPARTATE AMINOTRANSFERASE: 83 u/L
  BLOOD UREA NITROGEN: 12 mg/dL
  CARBON DIOXIDE: 34.67 mmol/L
  CHLORIDE: 98.67 MEQ/L
  CHOLESTEROL: 74.67 mg/dL
  CREATINE PHOSPHOKINASE: 397.33 u/L
  CREATININE: 0.11 mg/dL
  GLUCOSE: 142.33 mg/dL
  LACTATE DEHYDROGENASE: 178.33 u/L
  LIPASE: 9.67 u/L
  PHOSPHORUS: 11.4 mg/dL
  POTASSIUM: 6.11 MEQ/L
  SODIUM: 143 MEQ/L
  TOTAL BILIRUBIN: 0.17 mg/dL
  TOTAL PROTEIN: 5.87 G/DL
  URIC ACID: 0.63 mg/dL
[3]
  ABSOLUTE BASOPHIL: 0 CELLS/uL
  ABSOLUTE EOSINOPHIL: 40.33 CELLS/uL
  ABSOLUTE LYMPHOCYTE: 5577 CELLS/uL
  ABSOLUTE MONOCYTE: 23 CELLS/uL
  ABSOLUTE SEGMENTED NEUTROPHIL: 693 CELLS/uL
  BASOPHIL: 0%
  EOSINOPHIL: 0.67%
  ERYTHROCYTE COUNT: 5.58 x10E6/uL
  HEMATOCRIT: 33.8%
  HEMOGLOBIN: 13.07 G/DL
  LEUKOCYTE COUNT: 6.33 x10E3/uL
  LYMPHOCYTE: 88%
  MEAN CORPUSCULAR HEMOGLOBIN: 23.4 pg
  MEAN CORPUSCULAR HEMOGLOBIN CONCENTRATION: 38.67 G/DL
  MEAN CORPUSCULAR VOLUME: 60.5 fL
  MONOCYTE: 0.33%
  NEUTROPHIL: 11%
  NUCLEATED RED BLOOD CELLS: 0.33 /100WBC
  PLATELET COUNT: 1210.33 x10E3/uL
  ALANINE AMINOTRANSFERASE: 59.33 u/L
  ALBUMIN: 4.03 G/DL
  ALKALINE PHOSPHATASE: 373.67 u/L
  ASPARTATE AMINOTRANSFERASE: 85.33 u/L
  BLOOD UREA NITROGEN: 15.33 mg/dL
  CARBON DIOXIDE: 32.33 mmol/L
  CHLORIDE: 100 MEQ/L
  CHOLESTEROL: 63.33 mg/dL
  CREATINE PHOSPHOKINASE: 260.67 u/L
  CREATININE: 0.13 mg/dL
  GLUCOSE: 147 mg/dL
  LACTATE DEHYDROGENASE: 127.67 u/L
  LIPASE: 9 u/L
  PHOSPHORUS: 10.93 mg/dL
  POTASSIUM: 5.66 MEQ/L
  SODIUM: 145.65 MEQ/L
  TOTAL BILIRUBIN: 0.1 mg/dL
  TOTAL PROTEIN: 5.8 G/DL
  URIC ACID: 0.73 mg/dL
